pIC50: −log10 of the molar value.
Tests used:
[1] = Cytotoxicity against human HepG2 cells assessed as reduction in cell viability incubated for 72 hrs by MTT assay; type: cell-based
[2] = Selectivity index, ratio of CC50 for human HepG2 cells to IC50 for Leishmania donovani MHOM/IN/00/DEVI promastigotes; type: functional
Leishmania donovani [3] = assay: Antileishmanial activity against Leishmania donovani MHOM/IN/00/DEVI promastigotes assessed as reduction in parasite growth incubated for 72 hrs by MTT assay; type: functional, organism-based
Leishmania donovani [4] = assay: Antileishmanial activity against Leishmania donovani MHOM/IN/00/DEVI intracellular amastigotes infected in human THP1 cells assessed as reduction in parasite-infected macrophages incubated for 120 hrs by Giemsa staining based microscopy; type: functional, organism-based; conditions: THP-1, 120 h
[5] = Cytotoxicity against human THP1 cells assessed as reduction in cell viability incubated for 72 hrs by MTT assay; type: cell-based; conditions: THP-1 cells

O=c1cc(Sc2ccccc2Cl)c2cccc([N+](=O)[O-])c2[nH]1
CC50 at 72 h [1]: > 1.25 µM | Ratio CC50/IC50 [2]: >0.4 | pIC50 (Leishmania donovani [3]): 5.46

Nc1cc(=O)[nH]c2c([N+](=O)[O-])cccc12
CC50 at 72 h [1]: > 125 µM | pIC50 (Leishmania donovani [3]): < 4.30

O=c1cc(N2CCOCC2)c2cccc([N+](=O)[O-])c2[nH]1
CC50 at 72 h [1]: 86.2 µM | pIC50 (Leishmania donovani [3]): 4.38

O=c1cc(N2CCNCC2)c2cccc([N+](=O)[O-])c2[nH]1
CC50 at 72 h [1]: 2.4 µM | pIC50 (Leishmania donovani [3]): < 4.30

CCCCNc1cc(=O)[nH]c2c([N+](=O)[O-])cccc12
CC50 at 72 h [1]: 12.2 µM | pIC50 (Leishmania donovani [3]): 4.67

CC(C)(C)OC(=O)NCCOCCOCCNc1cc(=O)[nH]c2c([N+](=O)[O-])cccc12
CC50 at 72 h [1]: 34.8 µM | pIC50 (Leishmania donovani [3]): < 4.30

NCCOCCOCCNc1cc(=O)[nH]c2c([N+](=O)[O-])cccc12
CC50 at 72 h [1]: 123 µM | pIC50 (Leishmania donovani [3]): < 4.30

O=c1cc(Nc2ccccc2)c2cccc([N+](=O)[O-])c2[nH]1
CC50 at 72 h [1]: 1.8 µM | pIC50 (Leishmania donovani [3]): < 4.30

O=c1cc(Sc2ccccc2)c2cccc([N+](=O)[O-])c2[nH]1
CC50 at 72 h [1]: > 12.5 µM | Ratio CC50/IC50 [2]: >1.3 | pIC50 (Leishmania donovani [3]): 5.03

O=c1cc(Oc2ccccc2)c2cccc([N+](=O)[O-])c2[nH]1
CC50 at 72 h [1]: > 12.5 µM | Ratio CC50/IC50 [2]: >0.9 | pIC50 (Leishmania donovani [3]): 4.85

COc1ccccc1Sc1cc(=O)[nH]c2c([N+](=O)[O-])cccc12
pIC50 (Leishmania donovani [3]): < 5.00

COc1cccc(Sc2cc(=O)[nH]c3c([N+](=O)[O-])cccc23)c1
pIC50 (Leishmania donovani [3]): < 5.00

COc1ccc(Sc2cc(=O)[nH]c3c([N+](=O)[O-])cccc23)cc1
pIC50 (Leishmania donovani [3]): < 5.00

O=c1cc(Sc2ccccc2C(F)(F)F)c2cccc([N+](=O)[O-])c2[nH]1
CC50 at 72 h [1]: > 7.8 µM | Ratio CC50/IC50 [2]: >2.22 | pIC50 (Leishmania donovani [3]): 5.46

O=c1cc(Sc2cccc(C(F)(F)F)c2)c2cccc([N+](=O)[O-])c2[nH]1
pIC50 (Leishmania donovani [3]): < 5.00

O=c1cc(Sc2ccc(C(F)(F)F)cc2)c2cccc([N+](=O)[O-])c2[nH]1
CC50 at 72 h [1]: > 12.5 µM | Ratio CC50/IC50 [2]: >3.3 | pIC50 (Leishmania donovani [4]): < 4.90 | CC50 at 72 h [5]: > 12.5 µM | pIC50 (Leishmania donovani [3]): 5.42

O=c1cc(Sc2cccc(Cl)c2)c2cccc([N+](=O)[O-])c2[nH]1
pIC50 (Leishmania donovani [3]): < 5.00

O=c1cc(Sc2ccc(Cl)cc2)c2cccc([N+](=O)[O-])c2[nH]1
pIC50 (Leishmania donovani [3]): < 5.00

O=c1cc(Sc2ccc(Cl)cc2Cl)c2cccc([N+](=O)[O-])c2[nH]1
CC50 at 72 h [1]: > 7.8 µM | Ratio CC50/IC50 [2]: >2.1 | pIC50 (Leishmania donovani [3]): 5.42

O=c1cc(Sc2ccc(Br)cc2)c2cccc([N+](=O)[O-])c2[nH]1
CC50 at 72 h [1]: > 3.9 µM | Ratio CC50/IC50 [2]: >0.9 | pIC50 (Leishmania donovani [3]): 5.38

O=c1cc(Sc2ccccc2F)c2cccc([N+](=O)[O-])c2[nH]1
pIC50 (Leishmania donovani [3]): < 5.00

O=c1cc(Sc2cccc(F)c2)c2cccc([N+](=O)[O-])c2[nH]1
pIC50 (Leishmania donovani [3]): < 5.00

O=c1cc(Sc2ccc(F)cc2)c2cccc([N+](=O)[O-])c2[nH]1
pIC50 (Leishmania donovani [3]): < 5.00

Cc1ccccc1Sc1cc(=O)[nH]c2c([N+](=O)[O-])cccc12
pIC50 (Leishmania donovani [3]): < 5.00

Cc1ccc(Sc2cc(=O)[nH]c3c([N+](=O)[O-])cccc23)cc1
pIC50 (Leishmania donovani [3]): < 5.00

Nc1ccccc1Sc1cc(=O)[nH]c2c([N+](=O)[O-])cccc12
pIC50 (Leishmania donovani [3]): < 5.00

COc1ccccc1Oc1cc(=O)[nH]c2c([N+](=O)[O-])cccc12
pIC50 (Leishmania donovani [3]): < 5.00

COc1cccc(Oc2cc(=O)[nH]c3c([N+](=O)[O-])cccc23)c1
pIC50 (Leishmania donovani [3]): < 5.00

COc1ccc(Oc2cc(=O)[nH]c3c([N+](=O)[O-])cccc23)cc1
pIC50 (Leishmania donovani [3]): < 5.00

O=c1cc(Oc2ccccc2C(F)(F)F)c2cccc([N+](=O)[O-])c2[nH]1
CC50 at 72 h [1]: > 15.6 µM | Ratio CC50/IC50 [2]: >1.6 | pIC50 (Leishmania donovani [3]): 5.00

O=c1cc(Oc2cccc(C(F)(F)F)c2)c2cccc([N+](=O)[O-])c2[nH]1
CC50 at 72 h [1]: > 7.8 µM | Ratio CC50/IC50 [2]: >0.7 | pIC50 (Leishmania donovani [3]): < 5.00

O=c1cc(Oc2ccc(C(F)(F)F)cc2)c2cccc([N+](=O)[O-])c2[nH]1
CC50 at 72 h [1]: > 7.8 µM | Ratio CC50/IC50 [2]: >0.9 | pIC50 (Leishmania donovani [3]): 5.08

O=c1cc(Oc2ccccc2Cl)c2cccc([N+](=O)[O-])c2[nH]1
pIC50 (Leishmania donovani [3]): < 5.00

O=c1cc(Oc2cccc(Cl)c2)c2cccc([N+](=O)[O-])c2[nH]1
pIC50 (Leishmania donovani [3]): < 5.00

O=c1cc(Oc2ccc(Cl)cc2)c2cccc([N+](=O)[O-])c2[nH]1
CC50 at 72 h [1]: > 3.9 µM | Ratio CC50/IC50 [2]: >1.1 | pIC50 (Leishmania donovani [3]): 5.43

O=c1cc(Oc2ccccc2Br)c2cccc([N+](=O)[O-])c2[nH]1
CC50 at 72 h [1]: > 7.8 µM | Ratio CC50/IC50 [2]: >0.96 | pIC50 (Leishmania donovani [3]): 5.09

O=c1cc(Oc2cccc(Br)c2)c2cccc([N+](=O)[O-])c2[nH]1
pIC50 (Leishmania donovani [3]): < 5.00

O=c1cc(Oc2ccc(Br)cc2)c2cccc([N+](=O)[O-])c2[nH]1
pIC50 (Leishmania donovani [3]): < 5.30

O=c1cc(Oc2ccccc2F)c2cccc([N+](=O)[O-])c2[nH]1
pIC50 (Leishmania donovani [3]): < 5.00

O=c1cc(Oc2cccc(F)c2)c2cccc([N+](=O)[O-])c2[nH]1
pIC50 (Leishmania donovani [3]): < 5.00

Cc1ccccc1Oc1cc(=O)[nH]c2c([N+](=O)[O-])cccc12
pIC50 (Leishmania donovani [3]): < 5.00

Cc1cccc(Oc2cc(=O)[nH]c3c([N+](=O)[O-])cccc23)c1
pIC50 (Leishmania donovani [3]): < 5.00

Cc1ccc(Oc2cc(=O)[nH]c3c([N+](=O)[O-])cccc23)cc1
CC50 at 72 h [1]: > 25 µM | Ratio CC50/IC50 [2]: >4.2 | pIC50 (Leishmania donovani [4]): < 4.90 | CC50 at 72 h [5]: > 12.5 µM | pIC50 (Leishmania donovani [3]): 5.22

Cc1cc(Oc2cc(=O)[nH]c3c([N+](=O)[O-])cccc23)ccc1Cl
CC50 at 72 h [1]: > 15.6 µM | Ratio CC50/IC50 [2]: >2.6 | pIC50 (Leishmania donovani [3]): 5.22

COc1cccc2c1C(=O)c1c(O)c3c(c(O)c1C2=O)C[C@@](O)(C(=O)CO)C[C@@H]3O[C@H]1C[C@H](N)[C@H](O)[C@H](C)O1 [DOXORUBICIN]
CC50 at 72 h [5]: 0.008 µM

N=C(N)c1ccc(OCCCCCOc2ccc(C(=N)N)cc2)cc1 [PENTAMIDINE]
Ratio CC50/IC50 [2]: 0.4 | pIC50 (Leishmania donovani [4]): < 4.70 | CC50 at 72 h [5]: 31.2 µM
